Source: US20080260639A1, “PREPARATION AND METHOD UTILIZING RADIOLABELED CHLOROTOXIN” (priority 2004, published 2008)

How the values were obtained:
[1] = Storage stability of 1-131 Hippuran: percent remaining bound; format: physicochemical; details: 1 mCi per vial
Protocol: As another example, 1-131 Hippuran was prepared. The 1-131 Hippuran was prepared as follows: 9 vials were prepared of 1-131 Hippuran in solution with a radioactive concentration of MIBG of 1 mCi per vial. Each vial had 4 cc. The 1-131 in seven of those vials was then stabilized and lyophilized according to the process described in this invention. One vial was frozen and maintained at a temperature of −10 degrees, and another vial was maintained room temperature. Room temperature was selected because Hippuran is thought to be stable at room temperature even in conjunction with a radioisotope. […]

[2] = Storage stability of I-131 MIBG: percent of iodine remaining bound to the MIBG; format: physicochemical; details: for percent of iodine remaining bound to the MIBG: 1 mCi per vial
Text: The radioactive diagnostic radiopharmaceutical in this invention requires no further cold or refrigerated storage, including with respect to shipping, subsequent to stabilization. The lyophilized radiopharmaceutical composition is reconstituted “on site” for administration to patients by the addition of a suitable diluent to bring the radiopharmaceutical complex into solution at the time of administration to the patient. For administration, the I-123 labeled MIBG in the vial must be reconstituted. Because of the minute quantity of material, the vial of radionuclide complex, in the preferred mode the I-123 labeled MIBG will appear empty. The MIBG ligand is stable for several days because of the absence of water which is the primary substance from which free radicals are generated by gamma ray collisions with water molecules. The gamma rays are being emitted by the radionuclide, that is the I-123. The health care provider would add up to 2 ml. of sterile normal saline. The desired dose would be withdrawn and measured in a dose calibrator of a type manufactured by Capintec of Montville, N.J. If the glass vial is measured in the dose calibrator, the person measuring the dose must recognize that the glass vial will decrease the apparent activity. Upon calibration of the desired dose, the I-123 MIBG now re-dissolved in the solution is promptly administered to the patient. The advantages are that the flash freezing and lowering of vapor pressure result in quick formation and evaporation or sublimation (evaporation from ice to water vapour (a gas)) of water from the I-123 MIBG. The I-123 MIBG need not be shipped frozen in dry ice nor need it be shipped for overnight delivery. Shipping in dry ice over a weekend is generally not commercially practical. The I-123 MIBG can be shipped over the weekend and be used on Monday while simply maintaining it at room temperature or below. In order to establish the advantages of the novel process and resulting composition, a series of tests were run utilizing meta iodo benzyl guanidine (MIBG) in which the radionuclide I-131 was the iodine in the MIBG.
The MIBG was prepared as follows: eight vials were prepared of MIBG in solution with a radioactive concentration of MIBG of 1 mCi per vial. The MIBG in six of those vials were then stabilized and lyophilized according to the process described in this invention. One vial was frozen and maintained at a temperature of −10 degrees, and another vial was simply refrigerated at approximately 5 degrees.
Six vials were prepared according to the process in this invention in order to enable several to be reconstituted from the lyophilized state and their activity tallied.
The radioactive concentration of MIBG per vial was 1 mCi per vial.
The results showing the percent of iodine remaining bound to the MIBG are set forth in table I. One each of the vials was reconstituted after 24, 48, 72 and 168 hours respectively.

O=C([O-])CNC(=O)c1ccccc1[131I].[Na+] [Hippuran]
percent of Hippuran remaining bound to the I-123 ([1]; Frozen −10°, 0 hours): 98% | percent of Hippuran remaining bound to the I-123 ([1]; Frozen −10°, 24 hrs): 97.8% | percent of Hippuran remaining bound to the I-123 ([1]; Frozen −10°, 48 hrs): 97% | percent of Hippuran remaining bound to the I-123 ([1]; Frozen −10°, 72 hrs): 94% | percent of Hippuran remaining bound to the I-123 ([1]; Frozen −10°, 96 hrs): 92.5% | percent of Hippuran remaining bound to the I-123 ([1]; Frozen −10°, 120 hrs): 91% | percent of Hippuran remaining bound to the I-123 ([1]; Lyophilized and stabilized per invention, stored at room temp., 0 hours): 98% | percent of Hippuran remaining bound to the I-123 ([1]; Lyophilized and stabilized per invention, stored at room temp., 24 hrs): 98.4% | percent of Hippuran remaining bound to the I-123 ([1]; Lyophilized and stabilized per invention, stored at room temp., 48 hrs): 98.6% | percent of Hippuran remaining bound to the I-123 ([1]; Lyophilized and stabilized per invention, stored at room temp., 72 hrs): 98% | percent of Hippuran remaining bound to the I-123 ([1]; Lyophilized and stabilized per invention, stored at room temp., 96 hrs): 98.4% | percent of Hippuran remaining bound to the I-123 ([1]; Lyophilized and stabilized per invention, stored at room temp., 120 hrs): 98.5% | percent of Hippuran remaining bound to the I-123 ([1]; Room Temp. (solution, not lyophilized), 0 hours): 98% | percent of Hippuran remaining bound to the I-123 ([1]; Room Temp. (solution, not lyophilized), 24 hrs): 96% | percent of Hippuran remaining bound to the I-123 ([1]; Room Temp. (solution, not lyophilized), 48 hrs): 95% | percent of Hippuran remaining bound to the I-123 ([1]; Room Temp. (solution, not lyophilized), 72 hrs): 94.5% | percent of Hippuran remaining bound to the I-123 ([1]; Room Temp. (solution, not lyophilized), 96 hrs): 92% | percent of Hippuran remaining bound to the I-123 ([1]; Room Temp. (solution, not lyophilized), 120 hrs): 90%

N=C(N)NCc1cccc([131I])c1 [MIBG, meta iodo benzyl guanidine]
percent of iodine remaining bound to the MIBG ([2]; Frozen −10°, 24 hours): 94% | percent of iodine remaining bound to the MIBG ([2]; Frozen −10°, 48 hours): 91% | percent of iodine remaining bound to the MIBG ([2]; Frozen −10°, 72 hours): 84% | percent of iodine remaining bound to the MIBG ([2]; Frozen −10°, 168 hours (1 wk.)): 72% | percent of iodine remaining bound to the MIBG ([2]; Lyophilized and stabilized per invention, stored at room temp., 24 hours): 97% | percent of iodine remaining bound to the MIBG ([2]; Refrigerated ~+5°, 24 hours): 92% | percent of iodine remaining bound to the MIBG ([2]; Refrigerated ~+5°, 48 hours): 85% | percent of iodine remaining bound to the MIBG ([2]; Refrigerated ~+5°, 72 hours): 77% | percent of iodine remaining bound to the MIBG ([2]; Refrigerated ~+5°, 168 hours (1 wk.)): 55% | activity on storage ([2]; not stabilized and lyophilized per this invention): deteriorated sharply
